Structures can show the parent of a compound that is named as a salt.
biological target: Recombinant Human (rh) DPP1 (Homo sapiens, UniProt P53634); assay: Fluorescence Assay for Recombinant Human (rh) DPP1; type: biochemical; details: rhDPP1, substrate H-Gly-Arg-AMC, pH5.0, 22° C., pre-incubated 30-60 min; read-out: DPP1 activity, pIC50 (converted)
Method: Fluorescence Assay for Recombinant Human (rh) DPP1
The activity of DPP1 was determined by measuring the enzymatic release of aminomethyl coumarin (AMC) from the peptide substrate (H-Gly-Arg-AMC), which leads to an increase in fluorescence intensity at λex=350 nm and λem=450 nm. The assay was carried out in black 384 well plates in a final volume of 50 μl at 22° C. The assay conditions contained the following: 25 mM piperazine buffer pH5.0; 50 mM NaCl, 5 mM DTT; 0.01% (v/v) Triton X-100; 100 μM H-Gly-Arg-AMC and rhDPP1 ([…]). […] A standard DPP1 inhibitor (vinyl sulfone, see below, or Example 24 from WO2009/074829) was used as a positive control in the assay. Routinely, inhibitors were pre-incubated with rhDPP1 for 30-60 min prior to the addition of the peptide substrate to start the reaction for a further 60 min at 22° C. After that the plates were immediately read in a fluorescence plate reader using the above emission and excitation wavelengths [modified from Kam, C M, Gotz, M G, Koot, G, McGuire, M J, Thiele, D L, Hudig, D & Powers, J C (2004). Arch Biochem Biophys, 427, 123-134 & McGuire, M J, Lipsky, P E & Thiele, D L (1992). Arch Biochem Biophys, 295, 280-288].

Sequence of Recombinant Human (rh) DPP1 (P53634 231-394 limits assumed): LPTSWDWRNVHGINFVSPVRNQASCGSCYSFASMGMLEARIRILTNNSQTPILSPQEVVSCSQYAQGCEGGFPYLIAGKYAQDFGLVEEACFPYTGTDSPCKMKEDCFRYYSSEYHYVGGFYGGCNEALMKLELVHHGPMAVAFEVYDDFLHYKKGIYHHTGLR
Sequence of Recombinant Human (rh) DPP1 (P53634 25-134 limits assumed): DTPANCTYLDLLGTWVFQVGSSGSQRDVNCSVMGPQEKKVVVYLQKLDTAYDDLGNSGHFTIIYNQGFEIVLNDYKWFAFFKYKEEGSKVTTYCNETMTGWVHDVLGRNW
Sequence of Recombinant Human (rh) DPP1 (P53634 395-463 limits assumed): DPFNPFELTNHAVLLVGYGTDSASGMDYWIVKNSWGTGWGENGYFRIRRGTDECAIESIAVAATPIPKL

Row | IC50 | Compound
1 | 5.01 nM | CN1Cc2cc(-c3ccc(C[C@@H](C#N)NC(=O)C4(N)CCOCC4)cc3)cnc2C1=O [Example 32, (S)-4-Amino-N-(1-cyano-2-(4-(6-methyl-7-oxo-6,7-dihydro-5H-pyrrolo[3,4-b]pyridin-3-yl)phenyl)ethyl)tetrahydro-2H-pyran-4-carboxamide]
2 | 0.398 nM | N#C[C@H](Cc1ccc(-c2ccc3oc(=O)[nH]c3c2)cc1)NC(=O)C1(N)CCOCC1 [Example 33, (S)-4-Amino-N-(1-cyano-2-(4-(2-oxo-2,3-dihydrobenzo[d]oxazol-5-yl)phenyl)ethyl)tetrahydro-2H-pyran-4-carboxamide trifluoroacetatic acid salt]
3 | 1.26 nM | N#C[C@H](Cc1ccc(-c2ccc3c(c2)CS(=O)(=O)C3)cc1)NC(=O)C1(N)CCOCC1 [Example 34, 4-Amino-N-{(1S)-1-cyano-2-[4-(2,2-dioxido-1,3-dihydro-2-benzothiophen-5-yl)phenyl]ethyl}tetrahydro-2H-pyran-4-carboxamide]
